target: CDK2/Cyclin E1 (Homo sapiens (Human), UniProt P24941); experiment: CDK2/Cyclin E1 HTRF enzyme activity assay (Example A); type: biochemical; conditions: 1 mM ATP
Procedure: Assays were conducted in white 384-well polystyrene plates in a final reaction volume of 8 μL. […] HTRF signals were read after 1 hour at room temperature on a PHERAstar FS plate reader (BMG Labtech). Data was analyzed with IDBS XLFit and GraphPad Prism 5.0 software using a three or four parameter dose response curve to determine IC50 for each compound.

IC50 [µM] | Compound
≤ 0.05 | Cc1nc(-c2nc(NC3CCN(S(C)(=O)=O)CC3)ncc2C(F)(F)F)cn1-c1ccccc1F [Example 102, 4-(1-(2-Fluorophenyl)-2-methyl-1H-imidazol-4-yl)-N-(1-(methylsulfonyl)piperidin-4-yl)-5-(trifluoromethyl)pyrimidin-2-amine]
≤ 0.05 | COc1ccc(-n2cnc(-c3nc(NC4CCN(S(C)(=O)=O)CC4)ncc3C(F)(F)F)c2)c(C(F)F)n1 [Example 75, 4-(1-(2-(Difluoromethyl)-6-methoxypyridin-3-yl)-1H-imidazol-4-yl)-N-(1-(methylsulfonyl)piperidin-4-yl)-5-(trifluoromethyl)pyrimidin-2-amine]
≤ 0.05 | Cc1cc(CN(C)C)ccc1-n1cnc(-c2nc(NC3CCN(S(C)(=O)=O)CC3)ncc2C(F)(F)F)c1 [Example 271, 4-(1-(4-((Dimethylamino)methyl)-2-methylphenyl)-1H-imidazol-4-yl)-N-(1-(methylsulfonyl)piperidin-4-yl)-5-(trifluoromethyl)pyrimidin-2-amine]
≤ 0.05 | O=S(=O)(C1CC1)N1CCC(Nc2ncc(C(F)(F)F)c(-c3cn(CC(F)F)cn3)n2)CC1 [Example 29, N-(1-(Cyclopropylsulfonyl)piperidin-4-yl)-4-(1-(2,2-difluoroethyl)-1H-imidazol-4-yl)-5-(trifluoromethyl)pyrimidin-2-amine]
≤ 0.05 | CNc1nccc(-n2cnc(-c3nc(NC4CCN(S(C)(=O)=O)CC4)ncc3C(F)(F)F)c2)c1Cl [Example 322, 4-(1-(3-Chloro-2-(methylamino)pyridin-4-yl)-1H-imidazol-4-yl)-N-(1-(methylsulfonyl)piperidin-4-yl)-5-(trifluoromethyl)pyrimidin-2-amine]
≤ 0.05 | CS(=O)(=O)N1CCC(Nc2ncc(C(F)(F)F)c(-c3cn(-c4ccc(N5CCNC(=O)C5)cc4Cl)cn3)n2)CC1 [Example 150, 4-(3-Chloro-4-(4-(2-((1-(methyl-sulfonyl)piperidin-4-yl)amino)-5-(trifluoromethyl)-pyrimidin-4-yl)-1H-imidazol-1-yl)-phenyl)piperazin-2-one]
≤ 0.05 | C[C@@H]1CN(S(C)(=O)=O)CC[C@@H]1Nc1ncc(C(F)(F)F)c(-c2cn(-c3ccc4nccnc4c3Br)cn2)n1 [Example 156, 4-(1-(5-Bromoquinoxalin-6-yl)-1H-imidazol-4-yl)-N-((3R,4S)-3-methyl-1-(methylsulfonyl)piperidin-4-yl)-5-(trifluoromethyl)pyrimidin-2-amine]
≤ 0.05 | CS(=O)(=O)N1CCC(Nc2ncc(C(F)(F)F)c(-c3cn(-c4ccc(CN5CC(F)(F)C5)cc4Cl)cn3)n2)CC1 [Example 193, 4-(1-(2-Chloro-4-((3,3-difluoroazetidin-1-yl)methyl)phenyl)-1H-imidazol-4-yl)-N-(1-(methylsulfonyl)-piperidin-4-yl)-5-(trifluoromethyl)-pyrimidin-2-amine]
≤ 0.05 | CCNCCc1cccc(-n2cnc(-c3nc(NC4CCN(S(C)(=O)=O)CC4)ncc3C(F)(F)F)c2)c1Cl [Example 466, 4-(1-(2-Chloro-3-(2-(ethylamino)ethyl)phenyl)-1H-imidazol-4-yl)-N-(1-(methylsulfonyl)piperidin-4-yl)-5-(trifluoromethyl)pyrimidin-2-amine]
≤ 0.05 | Cc1nc(-c2nc(NC3CCN(S(C)(=O)=O)CC3)ncc2C(F)(F)F)cn1-c1cccc(C#N)c1F [Example 304, 2-Fluoro-3-(2-methyl-4-(2-((1-(methylsulfonyl)piperidin-4-yl)amino)-5-(trifluoromethyl)pyrimidin-4-yl)-1H-imidazol-1-yl)benzonitrile]
≤ 0.05 | CS(=O)(=O)N1CCC(Nc2ncc(C(F)(F)F)c(-c3cn(-c4ccc(CNC5CC5)cc4C(F)(F)F)cn3)n2)CC1 [Example 256]
≤ 0.05 | CC(c1cccc(-n2cnc(-c3nc(NC4CCN(S(C)(=O)=O)CC4)ncc3C(F)(F)F)c2)c1Cl)N(C)C (centres unmarked) [Example 376, 4-(1-(2-Chloro-3-(1-(dimethylamino)ethyl)phe-nyl)-1H-imidazol-4-yl)-N-(1-(methylsulfonyl)piperidin-4-yl)-5-(trifluoromethyl)pyrimi-din-2-amine]
≤ 0.05 | Cc1nccc(-n2cc(-c3nc(N[C@H]4CCN(S(C)(=O)=O)C[C@H]4F)ncc3C(F)(F)F)nc2C)c1F [Example 313, N-((3R,4S)-3-Fluoro-1-(methylsulfonyl)piperidin-4-yl)-4-(1-(3-fluoro-2-methylpyridin-4-yl)-2-methyl-1H-imidazol-4-yl)-5-(trifluoromethyl)pyrimidin-2-amine]
≤ 0.05 | COc1nccc(-n2cc(-c3nc(NC4CCN(S(C)(=O)=O)CC4)ncc3C(F)(F)F)nc2C)c1F [Example 314, 4-(1-(3-Fluoro-2-methoxypyridin-4-yl)-2-methyl-1H-imidazol-4-yl)-N-(1-(methylsulfonyl)piperidin-4-yl)-5-(trifluoromethyl)pyrimidin-2-amine]
≤ 0.05 | C[C@@H]1CN(S(=O)(=O)C2CC2)CC[C@@H]1Nc1ncc(C(F)(F)F)c(-c2cn(-c3ccc(CN(C)C)cc3Cl)cn2)n1 [Example 222, 4-(1-(2-Chloro-4-((dimethylamino)-methyl)phenyl)-1H-imidazol-4-yl)-N-((3R,4S)-1-(cyclo-propylsulfonyl)-3-methylpiperidin-4-yl)-5-(trifluoro-methyl)pyrimidin-2-amine]
≤ 0.05 | Cc1nc(-c2nc(NC3CCN(S(C)(=O)=O)CC3)ncc2C(F)(F)F)cn1-c1ccc(N[C@@H]2CCCN(C)C2)cc1F [Example 117]
≤ 0.05 | COCCNc1ccc(-n2cc(-c3nc(NC4CCN(S(C)(=O)=O)CC4)ncc3C(F)(F)F)nc2C)c(F)c1 [Example 112, 4-(1-(2-Fluoro-4-((2-methoxyethyl)-amino)phenyl)-2-methyl-1H-imidazol-4-yl)-N-(1-(methyl-sulfonyl)piperidin-4-yl)-5-(trifluoro-methyl)pyrimidin-2-amine]
≤ 0.05 | Cn1ncnc1-c1ccc(-n2cnc(-c3nc(NC4CCN(S(C)(=O)=O)CC4)ncc3C(F)(F)F)c2)c(Cl)c1 [Example 121, 4-(1-(2-Chloro-4-(1-methyl-1H-1,2,4-triazol-5-yl)phenyl)-1H-imidazol-4-yl)-N-(1-(methylsulfonyl)-piperidin-4-yl)-5-(trifluoromethyl)-pyrimidin-2-amine]
≤ 0.05 | CS(=O)(=O)N1CCC(Nc2ncc(C(F)(F)F)c(-c3cn(-c4ccnc(N5CCOCC5)c4Cl)cn3)n2)CC1 [Example 320]
≤ 0.05 | CNCc1cc(F)c(-n2cnc(-c3nc(NC4CCN(S(C)(=O)=O)CC4)ncc3C(F)(F)F)c2)c(F)c1 [Example 350, 4-(1-(2,6-Difluoro-4-((methylamino)methyl)phenyl)-1H-imidazol-4-yl)-N-(1-(methylsulfonyl)piperidin-4-yl)-5-(trifluoromethyl)pyrimidin-2-amine]
≤ 0.05 | CC(C)NCc1cc(F)c(-n2cnc(-c3nc(N[C@H]4CCN(S(C)(=O)=O)C[C@H]4F)ncc3C(F)(F)F)c2)c(F)c1 [Example 386, 4-(1-(2,6-Difluoro-4-((isopropylamino)methyl)phenyl)-1H-imidazol-4-yl)-N-((3R,4S)-3-fluoro-1-(methylsulfonyl)piperidin-4-yl)-5-(trifluoromethyl)pyrimidin-2-amine]
≤ 0.05 | Cc1nc(-c2nc(NC3CCN(S(C)(=O)=O)CC3)ncc2C(F)(F)F)cn1-c1ccc(N2CC[C@H](N(C)C)C2)cc1F [Example 110, (S)-4-(1-(4-(3-(Dimethylamino)-pyrrolidin-1-yl)-2-fluorophenyl)-2-methyl-1H-imidazol-4-yl)-N-(1-(methyl-sulfonyl)piperidin-4-yl)-5-(trifluoro-methyl)pyrimidin-2-amine]
≤ 0.05 | CCNCc1cc(F)c(-n2cnc(-c3nc(N[C@@H]4CCN(S(C)(=O)=O)C[C@H]4F)ncc3C(F)(F)F)c2)c(Cl)c1 [Example 406, 4-(1-(2-Chloro-4-((ethylamino)methyl)-6-fluorophenyl)-1H-imidazol-4-yl)-N-((3R,4R)-3-fluoro-1-(methylsulfonyl)piperidin-4-yl)-5-(trifluoromethyl)pyrimidin-2-amine]
≤ 0.05 | CCN1CCN(Cc2cc(F)c(-n3cnc(-c4nc(NC5CCN(S(C)(=O)=O)CC5)ncc4C(F)(F)F)c3)c(F)c2)CC1 [Example 351, 4-(1-(4-((4-Ethylpiperazin-1-yl)methyl)-2,6-difluorophenyl)-1H-imidazol-4-yl)-N-(1-(methylsulfonyl)piperidin-4-yl)-5-(trifluoromethyl)pyrimidin-2-amine]
≤ 0.05 | CS(=O)(=O)N1CCC(Nc2ncc(C(F)(F)F)c(-c3cn(-c4ccc(CN5CCC5)cc4C(F)(F)F)cn3)n2)CC1 [Example 251, 4-(1-(4-(Azetidin-1-ylmethyl)-2-(trifluoromethyl)phenyl)-1H-imidazol-4-yl)-N-(1-(methylsulfonyl)piperidin-4-yl)-5-(trifluoromethyl)pyrimidin-2-amine]
≤ 0.05 | CS(=O)(=O)N1CCC(Nc2ncc(C(F)(F)F)c(-c3cn(-c4ccc(C#N)cc4Cl)cn3)n2)CC1 [Example 1, 3-Chloro-4-(4-(2-((1-(methylsulfonyl)piperidin-4-yl)amino)-5-(trifluoromethyl)pyrimidin-4-yl)-1H-imidazol-1-yl)benzonitrile]
≤ 0.05 | CCNC(C)c1cccc(-n2cnc(-c3nc(NC4CCN(S(C)(=O)=O)CC4)ncc3C(F)(F)F)c2)c1Cl (centres unmarked) [Example 375, 4-(1-(2-Chloro-3-(1-(ethylamino)ethyl)phenyl)-1H-imidazol-4-yl)-N-(1-(methylsulfonyl)piperidin-4-yl)-5-(trifluoromethyl)pyrimidin-2-amine]
≤ 0.05 | Cc1nc(C#N)ccc1-n1cnc(-c2nc(N[C@H]3CCN(S(C)(=O)=O)C[C@H]3F)ncc2C(F)(F)F)c1 [Example 49, 5-(4-(2-(((3R,4S)-3-Fluoro-1-(methylsulfonyl)piperidin-4-yl)amino)-5-(trifluoromethyl)pyrimidin-4-yl)-1H-imidazol-1-yl)-6-methylpicolinonitrile]
≤ 0.05 | CS(=O)(=O)N1CCC(Nc2ncc(C(F)(F)F)c(-c3cn(-c4ccc(CN5CCCCC5)cc4Cl)cn3)n2)CC1 [Example 208]
